This note sets out measurements from US9783536B2, “Nitrogen-containing heterocyclic compound or salt thereof” (FUJIFILM Corporation, priority 2013, dated 2017).

In assay [1] the target is T1, GST fusion human ERK2 protein (Homo sapiens, UniProt P28482).
T1 construct: purchased Carna Biosciences, Inc; host or cells: E. coli expression system
As to the kind of experiment: ERK2 enzyme assay (2). Conditions: ERK2 enzyme assay (2); read-out: ERK2 enzyme inhibitory activity (2). It is filed as biochemical. An outline of the steps: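 GST-tagged human ERK2 expressed in E. coli (1.25 nmol/L) was preincubated with compound for 15 min at room temperature in pH 7.5 Hepes buffer with MgCl2, DTT and Brij35. Reaction with FL-Peptide 8 (final 4.25 μmol/L) and ATP (final 1 mmol/L) ran 120 min at 25 °C; EDTA stopped it, and phosphorylated peptide was quantified by mobility-shift separation to derive IC50.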

For another assay, the target named is T2, human PI3Kα protein (Homo sapiens, UniProt P42336).
T2 construct: purchased Carna Biosciences, Inc; host or cells: baculovirus expression system
T2 sequence (P42336 whole entry): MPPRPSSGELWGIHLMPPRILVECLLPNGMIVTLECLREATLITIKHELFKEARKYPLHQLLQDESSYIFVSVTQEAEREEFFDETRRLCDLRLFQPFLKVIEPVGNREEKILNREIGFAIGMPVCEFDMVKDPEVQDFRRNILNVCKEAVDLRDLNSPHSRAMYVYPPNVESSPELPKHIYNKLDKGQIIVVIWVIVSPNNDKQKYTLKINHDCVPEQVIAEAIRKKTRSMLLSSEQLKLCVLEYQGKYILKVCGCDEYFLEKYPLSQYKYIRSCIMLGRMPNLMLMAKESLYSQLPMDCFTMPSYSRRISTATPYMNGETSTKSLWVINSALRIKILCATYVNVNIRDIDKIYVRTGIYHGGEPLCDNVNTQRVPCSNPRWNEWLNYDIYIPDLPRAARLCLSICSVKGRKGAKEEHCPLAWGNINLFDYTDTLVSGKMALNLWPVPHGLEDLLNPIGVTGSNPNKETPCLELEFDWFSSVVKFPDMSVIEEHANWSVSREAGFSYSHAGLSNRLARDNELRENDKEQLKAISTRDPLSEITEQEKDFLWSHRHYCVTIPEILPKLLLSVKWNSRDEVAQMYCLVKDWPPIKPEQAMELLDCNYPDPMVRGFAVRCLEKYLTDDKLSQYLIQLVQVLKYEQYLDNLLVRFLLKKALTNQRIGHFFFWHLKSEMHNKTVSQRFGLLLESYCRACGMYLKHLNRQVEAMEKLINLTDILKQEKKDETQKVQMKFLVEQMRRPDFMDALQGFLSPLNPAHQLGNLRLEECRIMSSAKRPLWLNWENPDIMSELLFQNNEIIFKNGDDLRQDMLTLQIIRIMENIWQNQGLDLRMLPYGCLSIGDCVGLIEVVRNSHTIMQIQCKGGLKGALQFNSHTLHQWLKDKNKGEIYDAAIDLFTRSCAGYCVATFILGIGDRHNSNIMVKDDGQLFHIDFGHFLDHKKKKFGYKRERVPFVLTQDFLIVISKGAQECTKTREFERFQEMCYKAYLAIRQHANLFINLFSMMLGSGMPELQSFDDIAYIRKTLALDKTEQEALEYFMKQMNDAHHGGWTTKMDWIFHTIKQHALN
T2 sequence (P27986 whole entry partner): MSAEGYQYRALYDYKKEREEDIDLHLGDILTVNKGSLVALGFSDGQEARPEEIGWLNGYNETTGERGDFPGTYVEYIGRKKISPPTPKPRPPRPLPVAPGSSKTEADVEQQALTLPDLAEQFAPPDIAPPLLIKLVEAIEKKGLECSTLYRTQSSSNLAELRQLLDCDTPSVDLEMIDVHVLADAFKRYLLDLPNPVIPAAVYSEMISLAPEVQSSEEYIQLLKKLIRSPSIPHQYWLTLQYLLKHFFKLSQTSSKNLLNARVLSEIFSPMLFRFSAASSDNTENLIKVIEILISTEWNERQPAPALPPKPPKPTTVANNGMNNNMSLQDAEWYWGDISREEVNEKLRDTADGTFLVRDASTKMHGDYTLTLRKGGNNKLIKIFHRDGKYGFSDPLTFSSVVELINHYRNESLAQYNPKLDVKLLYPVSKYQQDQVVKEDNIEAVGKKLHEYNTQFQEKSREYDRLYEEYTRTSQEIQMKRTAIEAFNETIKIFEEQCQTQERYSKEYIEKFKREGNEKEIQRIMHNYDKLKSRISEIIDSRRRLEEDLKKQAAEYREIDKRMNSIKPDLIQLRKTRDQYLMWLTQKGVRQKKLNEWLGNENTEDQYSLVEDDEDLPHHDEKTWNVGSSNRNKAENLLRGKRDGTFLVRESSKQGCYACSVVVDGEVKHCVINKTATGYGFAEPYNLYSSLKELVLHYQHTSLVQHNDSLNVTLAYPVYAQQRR
As to the kind of experiment: PI3Kα enzyme assay (ADP-Glo). To be noted: read-out: PI3Kα enzyme inhibitory activity. It is filed as biochemical. An outline of the steps:
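Biotinylated human PI3Kα (baculovirus-expressed, 4.5 nmol/L) pre-incubated 15 min with compound in Tris-HCl pH 7.5, MgCl2, BSA; reaction 60 min at 25° C with 50 μmol/L PIP2 and 100 μmol/L ATP final. ADP quantified by ADP-Glo luminescence; IC50 calculated.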
Background: ADP-Glo turns the ADP formed in a reaction into a luminescent signal.

T1 sequence (P28482 whole entry, the tested form may be a part): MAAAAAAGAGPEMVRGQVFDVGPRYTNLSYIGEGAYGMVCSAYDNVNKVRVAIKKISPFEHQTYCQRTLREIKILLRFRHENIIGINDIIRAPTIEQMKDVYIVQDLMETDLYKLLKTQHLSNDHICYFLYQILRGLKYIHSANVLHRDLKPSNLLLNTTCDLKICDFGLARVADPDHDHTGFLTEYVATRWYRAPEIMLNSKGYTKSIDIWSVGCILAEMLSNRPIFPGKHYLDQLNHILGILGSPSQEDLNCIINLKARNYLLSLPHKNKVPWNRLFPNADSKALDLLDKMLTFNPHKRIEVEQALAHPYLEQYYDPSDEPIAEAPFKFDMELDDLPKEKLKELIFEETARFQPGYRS

Regarding `Cc1ccc(S(=O)(=O)NC2CN(CCCn3cc(-c4cnc5ccc(Nc6cc(C(C)C)cnn6)nc5c4)cn3)C2)cc1` [Example 0701], the IC50 (in assay [1]; at human PI3Kα protein) was less than 1000 nM each time.
For `CC(C)c1cnnc(Nc2ccc3ncc(-c4cnn(CCCN5CC(O)(CCO)C5)c4)cc3n2)c1` [Example 0702], the IC50 (in assay [1]; on human PI3Kα protein) was less than 1000 nM throughout.
Take `CC(C)c1cnnc(Nc2ccc3ncc(-c4cnn(Cc5ccccc5[N+](=O)[O-])c4)cc3n2)c1` [Example 0703, N-(5-isopropylpyridazin-3-yl)-7-(1-(2-nitrobenzyl)-1H-pyrazol-4-yl)-1,5-naphthyridine-2-amine]: the IC50 (in assay [1]; at human PI3Kα protein) was less than 1000 nM in each case.
For the molecule `CC(C)c1cnnc(Nc2ccc3ncc(-c4cnn(CCCN5CC6(CCO6)C5)c4)cc3n2)c1` [Example 0704, 7-(1-(3-(1-Oxa-6-azaspiro[3.3]heptan-6-yl)propyl)-1H-pyrazol-4-yl)-N-(5-isopropylpyridazin-3-yl)-1,5-naphthyridine-2-amine], the IC50 (in assay [1]; on human PI3Kα protein) was less than 1000 nM in each case.
Turning to `CC(C)c1cnnc(Nc2ccc3ncc(-c4cnn(Cc5ccccc5N)c4)cc3n2)c1` [Example 0705, 7-(1-(2-aminobenzyl)-1H-pyrazol-4-yl)-N-(5-isopropylpyridazin-3-yl)-1,5-naphthyridine-2-amine], the IC50 (in assay [1]; at human PI3Kα protein) was less than 1000 nM each time.
Regarding `CCCOC1CN(CCCn2cc(-c3cnc4ccc(Nc5cc(C(C)C)cnn5)nc4c3)cn2)C1` [Example 0706], the IC50 (in assay [1]; on human PI3Kα protein) was less than 1000 nM each time.
Regarding `CCCCOC1CN(CCCn2cc(-c3cnc4ccc(Nc5cc(C(C)C)cnn5)nc4c3)cn2)C1` [Example 0707], the IC50 (in assay [1]; on human PI3Kα protein) was less than 1000 nM in each case.
`CC(C)COC1CN(CCCn2cc(-c3cnc4ccc(Nc5cc(C(C)C)cnn5)nc4c3)cn2)C1` [Example 0708]: the IC50 (in assay [1]; on human PI3Kα protein) was less than 1000 nM each time.
As to `CC(C)c1cnnc(Nc2ccc3ncc(-c4cnn(CCCN5CC(OCC6CC6)C5)c4)cc3n2)c1` [Example 0709], the IC50 (in assay [1]; at human PI3Kα protein) was less than 1000 nM throughout.
Regarding `CC(C)OC1CN(CCCn2cc(-c3cnc4ccc(Nc5cc(C(C)C)cnn5)nc4c3)cn2)C1` [Example 0710, 7-(1-(3-(3-Isopropoxyazetidin-1-yl)propyl)-1H-pyrazol-4-yl)-N-(5-isopropylpyridazin-3-yl)-1,5-naphthyridine-2-amine], the IC50 (in assay [1]; on human PI3Kα protein) was less than 1000 nM throughout.
For the molecule `CC(C)c1cnnc(Nc2ccc3ncc(-c4cnn(Cc5cccc([N+](=O)[O-])c5)c4)cc3n2)c1` [Example 0711], the IC50 (in assay [1]; on human PI3Kα protein) was less than 1000 nM throughout.
Turning to `CC(C)c1cnnc(Nc2ccc3ncc(-c4cnn(CCCN5CC(OCCF)C5)c4)cc3n2)c1` [Example 0713, 7-(1-(3-(3-(2-Fluoroethoxy)azetidin-1-yl)propyl)-1H-pyrazol-4-yl)-N-(5-isopropylpyridazin-3-yl)-1,5-naphthyridine-2-amine], the IC50 (in assay [1]; on human PI3Kα protein) was less than 1000 nM in each case.
As to `CC(C)c1cnnc(Nc2ccc3ncc(-c4cnn(CCCN5CC(OCC(F)F)C5)c4)cc3n2)c1` [Example 0714], the IC50 (in assay [1]; on human PI3Kα protein) was less than 1000 nM throughout.
For `CC(C)c1cnnc(Nc2ccc3ncc(-c4cnn(CCCN5CC(Oc6ccccc6)C5)c4)cc3n2)c1` [Example 0715, N-(5-isopropylpyridazin-3-yl)-7-(1-(3-(3-phenoxyazetidin-1-yl)propyl)-1H-pyrazol-4-yl)-1,5-naphthyridine-2-amine], the IC50 (in assay [1]; at human PI3Kα protein) was less than 1000 nM throughout.
With `CC(C)c1cnnc(Nc2ccc3ncc(-c4cnn(Cc5ccc([N+](=O)[O-])cc5)c4)cc3n2)c1` [Example 0716], the IC50 (in assay [1]; at human PI3Kα protein) was less than 1000 nM in each case.
As to `CC(C)c1cnnc(Nc2ccc3ncc(-c4cnn(Cc5ccc(N)cc5)c4)cc3n2)c1` [Example 0717, 7-(1-(4-Aminobenzyl)-1H-pyrazol-4-yl)-N-(5-isopropylpyridazin-3-yl)-1,5-naphthyridine-2-amine], the IC50 (in assay [1]; at human PI3Kα protein) was less than 1000 nM throughout.
Consider `COCCOC1CN(CCCn2cc(-c3cnc4ccc(Nc5cc(C(C)C)cnn5)nc4c3)cn2)C1` [Example 0718, N-(5-isopropylpyridazin-3-yl)-7-(1-(3-(3-(2-methoxyethoxy)azetidin-1-yl)propyl)-1H-pyrazol-4-yl)-1,5-naphthyridine-2-amine], for which the IC50 (in assay [1]; at human PI3Kα protein) was less than 1000 nM throughout.
For `Cc1n[nH]cc1-c1cnc2ccc(Nc3cc(C(C)C)cnn3)nc2c1` [Example 0719, N-(5-isopropylpyridazin-3-yl)-7-(3-methyl-1H-pyrazol-4-yl)-1,5-naphthyridine-2-amine], the IC50 (in assay [1]; at human PI3Kα protein) was less than 1000 nM throughout.
Take `Cc1nn(C)nc1-c1cnc2ccc(Nc3cc(C(C)C)cnn3)nc2c1` [Example 0720, 7-(2,5-Dimethyl-2H-1,2,3-triazol-4-yl)-N-(5-isopropylpyridazin-3-yl)-1,5-naphthyridine-2-amine]: the IC50 (in assay [1]; at human PI3Kα protein) was less than 1000 nM in each case.
Turning to `CC(C)c1cnnc(Nc2ccc3ncc(-c4cnn(CCCN5CC(N(C)S(C)(=O)=O)C5)c4)cc3n2)c1` [Example 0721, N-(1-(3-(4-(6-((5-isopropylpyridazin-3-yl)amino)-1,5-naphthyridin-3-yl)-1H-pyrazol-1-yl)propyl)azetidin-3-yl)-N-methylmethane sulfonamide], the IC50 (in assay [1]; at human PI3Kα protein) was less than 1000 nM each time.
With `CC(C)c1cnnc(Nc2ccc3ncc(-c4cnn(Cc5cncnc5)c4)cc3n2)c1` [Example 0722], the IC50 (in assay [1]; at human PI3Kα protein) was less than 1000 nM each time.
For `CC(C)c1cnnc(Nc2ccc3ncc(-c4cnn(/C=C(\F)CN5CCCC5)c4)cc3n2)c1` [Example 0726, (Z)-7-(1-(2-fluoro-3-(pyrrolidin-1-yl)-1-propen-1-yl)-1H-pyrazol-4-yl)-N-(5-isopropylpyridazin-3-yl)-1,5-naphthyridine-2-amine], the IC50 (in assay [1]; on human PI3Kα protein) was less than 1000 nM each time.
`CC(C)c1cnnc(Nc2ccc3ncc(-c4cnn(CC(F)CN5CCCC5)c4)cc3n2)c1` (stereo not shown) [Example 0727]: the IC50 (in assay [1]; at human PI3Kα protein) was less than 1000 nM in each case.
Regarding `CC(C)c1cnnc(Nc2ccc3ncc(-c4cnn(CC5CN(C)CCO5)c4)cc3n2)c1` (stereo not shown) [Example 0728, N-(5-isopropylpyridazin-3-yl)-7-(1-((4-methylmorpholin-2-yl)methyl)-1H-pyrazol-4-yl)-1,5-naphthyridine-2-amine], the IC50 (in assay [1]; on human PI3Kα protein) was less than 1000 nM each time.
As for `CC(C)c1cnnc(Nc2ccc3ncc(-c4cnn(CC(O)CN5CCOCC5)c4)cc3n2)c1` (stereo not shown) [Example 0729], the IC50 (in assay [1]; on human PI3Kα protein) was less than 1000 nM each time.
Turning to `COC(CN1CCOCC1)Cn1cc(-c2cnc3ccc(Nc4cc(C(C)C)cnn4)nc3c2)cn1` (stereo not shown) [Example 0730], the IC50 (in assay [1]; on human PI3Kα protein) was less than 1000 nM throughout.
On to `CC(C)c1cnnc(Nc2ccc3ncc(-c4cnn(CC(F)(F)CN5CCOCC5)c4)cc3n2)c1` [Example 0731], for which the IC50 (in assay [1]; at human PI3Kα protein) was less than 1000 nM throughout.
With `CC(C)c1cnnc(Nc2ccc3ncc(-c4cnn(CC(CN5CCOCC5)OCc5ccccc5)c4)cc3n2)c1` (stereo not shown) [Example 0732], the IC50 (in assay [1]; on human PI3Kα protein) was less than 1000 nM throughout.
Take `Cc1ccc(-c2nn(C)cc2-c2cnc3ccc(Nc4cc(C(C)C)cnn4)nc3c2)cn1` [Example 0734]: the IC50 (in assay [1]; on human PI3Kα protein) was less than 1000 nM throughout.
Take `CC(C)c1cnnc(Nc2ccc3ncc(-c4cnn(CC(F)(F)CN5CCCC5)c4)cc3n2)c1` [Example 0735, 7-(1-(2,2-Difluoro-3-(pyrrolidin-1-yl)propyl)-1H-pyrazol-4-yl)-N-(5-isopropylpyridazin-3-yl)-1,5-naphthyridine-2-amine]: the IC50 (in assay [1]; on human PI3Kα protein) was less than 1000 nM throughout.
For the molecule `Cc1ccncc1-c1nn(C)cc1-c1cnc2ccc(Nc3cc(C(C)C)cnn3)nc2c1` [Example 0736], the IC50 in assay [1] was 1000 to 10000 nM; on human PI3Kα protein it was less than 1000 nM.
Take `CC(C)c1cnnc(Nc2ccc3ncc(-c4cnn(CCOC5CN(C(=O)OC(C)(C)C)C5)c4)cc3n2)c1` [Example 0739, tert-Butyl 3-(2-(4-(6-((5-isopropylpyridazin-3-yl)amino)-1,5-naphthyridin-3-yl)-1H-pyrazol-1-yl)ethoxy)azetidine-1-carboxylate]: the IC50 in assay [1] was less than 1000 nM; at human PI3Kα protein, 1000 to 10000 nM.
Regarding `CC(C)c1cnnc(Nc2ccc3ncc(-c4cnn(CCOC5CNC5)c4)cc3n2)c1` [Example 0740, 7-(1-(2-(azetidin-3-yloxy)ethyl)-1H-pyrazol-4-yl)-N-(5-isopropylpyridazin-3-yl)-1,5-naphthyridine-2-amine], the IC50 (in assay [1]; at human PI3Kα protein) was less than 1000 nM in each case.
For `CC(C)c1cnnc(Nc2ccc3ncc(-c4cnn(CCOC5CN(C)C5)c4)cc3n2)c1` [Example 0741, N-(5-isopropylpyridazin-3-yl)-7-(1-(2-((1-methylazetidin-3-yl)oxy)ethyl)-1H-pyrazol-4-yl)-1,5-naphthyridine-2-amine], the IC50 (in assay [1]; at human PI3Kα protein) was less than 1000 nM in each case.
As to `CC(C)c1cnnc(Nc2ccc3ncc(-c4cnn(CCOC5CN(C(C)C)C5)c4)cc3n2)c1` [Example 0742], the IC50 (in assay [1]; on human PI3Kα protein) was less than 1000 nM throughout.
